Experimental data taken from PubChem BioAssay AID248 (DTP/NCI, 2004).
Toxic doses and inconclusive results are not listed. Rule as the data show it: active = T/C of 150% or more; inactive = T/C below 125%.

System: L1210 leukemia ip in BDF1 mice, survival T/C
Test: NCI In Vivo Anticancer Drug Screen. Data for tumor model L1210 Leukemia (intraperitoneal) in B6D2F1 (BDF1) mice
Conditions: endpoint: mean survival time, higher = longer survival
In short: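 Survival endpoint. Drug-treated group vs vehicle group, expressed as T divided by C. Tumor passaged by transplantation.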

[1] = dose: 100.0 mg/kg/injection, schedule: Q04DX003 (ip), vehicle: saline with Tween-80
[2] = dose: 200.0 mg/kg/injection, schedule: Q04DX003 (ip), vehicle: saline with Tween-80
[3] = dose: 100.0 mg/kg/injection, schedule: Q01DX009 (ip), vehicle: other
[4] = dose: 200.0 mg/kg/injection, schedule: Q01DX009 (ip), vehicle: other
[5] = dose: 400.0 mg/kg/injection, schedule: Q01DX009 (ip), vehicle: other
[6] = dose: 12.5 mg/kg/injection, schedule: Q04DX003 (ip), vehicle: Klucel (hydroxypropylcellulose) (HPC)
[7] = dose: 100.0 mg/kg/injection, schedule: Q01DX001 (ip), vehicle: other
[8] = dose: 200.0 mg/kg/injection, schedule: Q01DX001 (ip), vehicle: other
[9] = dose: 400.0 mg/kg/injection, schedule: Q01DX001 (ip), vehicle: other
[10] = dose: 100.0 mg/kg/injection, schedule: Q01DX001 (ip), vehicle: saline
[11] = dose: 200.0 mg/kg/injection, schedule: Q01DX001 (ip), vehicle: saline
[12] = dose: 400.0 mg/kg/injection, schedule: Q01DX001 (ip), vehicle: saline
[13] = dose: 100.0 mg/kg/injection, schedule: Q04DX003 (ip), vehicle: Klucel (hydroxypropylcellulose) (HPC)
[14] = dose: 200.0 mg/kg/injection, schedule: Q04DX003 (ip), vehicle: Klucel (hydroxypropylcellulose) (HPC)
[15] = dose: 50.0 mg/kg/injection, schedule: Q01DX001 (ip), vehicle: other
[16] = dose: 100.0 mg/kg/injection, schedule: Q04DX002 (ip), vehicle: saline with Tween-80
[17] = dose: 200.0 mg/kg/injection, schedule: Q04DX002 (ip), vehicle: saline with Tween-80
[18] = dose: 400.0 mg/kg/injection, schedule: Q04DX002 (ip), vehicle: saline with Tween-80

Measured: T/C

O=C(O)C1=C(C(=O)O)C2CCC1C2
inactive: [1] 100 % of control | [2] 88 % of control

CC(=O)Nc1ccc(C(N)=O)cn1
inactive: dose: 8.0 mg/kg/injection, schedule: Q01DX009 (ip), vehicle: carboxymethylcellulose (CMC) 98 % of control | dose: 16.0 mg/kg/injection, schedule: Q01DX009 (ip), vehicle: carboxymethylcellulose (CMC) 98 % of control | dose: 32.0 mg/kg/injection, schedule: Q01DX009 (ip), vehicle: carboxymethylcellulose (CMC) 98 % of control | dose: 64.0 mg/kg/injection, schedule: Q01DX001 (ip), vehicle: carboxymethylcellulose (CMC) 94 % of control | dose: 64.0 mg/kg/injection, schedule: Q01DX009 (ip), vehicle: carboxymethylcellulose (CMC) 118 % of control | dose: 128.0 mg/kg/injection, schedule: Q01DX001 (ip), vehicle: carboxymethylcellulose (CMC) 92 % of control | dose: 256.0 mg/kg/injection, schedule: Q01DX001 (ip), vehicle: carboxymethylcellulose (CMC) 97 % of control | dose: 512.0 mg/kg/injection, schedule: Q01DX001 (ip), vehicle: carboxymethylcellulose (CMC) 92 % of control

CCc1ccc(NC(=S)NC(=O)c2ccccc2OC)cc1
inactive: [3] 98 % of control | [4] 103 % of control | [5] 93 % of control

CC[N+]1(CN2CCCCC2)CCCCC1
inactive: [6] 102 % of control | dose: 25.0 mg/kg/injection, schedule: Q04DX003 (ip), vehicle: Klucel (hydroxypropylcellulose) (HPC) 96 % of control | dose: 50.0 mg/kg/injection, schedule: Q04DX003 (ip), vehicle: Klucel (hydroxypropylcellulose) (HPC) 90 % of control

CC(C)C1(C(C)C)NC(=O)NC1=O
inactive: [7] 98 % of control | [3] 101 % of control | dose: 100.0 mg/kg/injection, schedule: Q04DX003 (ip), vehicle: other 102 % of control | [8] 98 % of control | [4] 106 % of control | dose: 200.0 mg/kg/injection, schedule: Q04DX003 (ip), vehicle: other 98 % of control | [9] 106 % of control | [5] 107 % of control | dose: 400.0 mg/kg/injection, schedule: Q04DX003 (ip), vehicle: other 100 % of control

Cc1sc2ccccc2[n+]1CCCCS(=O)(=O)O
inactive: [10] 92 % of control | [11] 97 % of control | [12] 97 % of control

CC1=N/C(=C/c2ccccc2Cl)C(=O)O1
inactive: dose: 50.0 mg/kg/injection, schedule: Q01DX009 (ip), vehicle: Klucel (hydroxypropylcellulose) (HPC) 93 % of control | dose: 100.0 mg/kg/injection, schedule: Q01DX009 (ip), vehicle: Klucel (hydroxypropylcellulose) (HPC) 90 % of control | [13] 95 % of control | dose: 200.0 mg/kg/injection, schedule: Q01DX009 (ip), vehicle: Klucel (hydroxypropylcellulose) (HPC) 93 % of control | [14] 98 % of control

c1ccc(CC2CCCC2)cc1
inactive: [13] 93 % of control | [14] 95 % of control | dose: 300.0 mg/kg/injection, schedule: Q04DX003 (ip), vehicle: Klucel (hydroxypropylcellulose) (HPC) 106 % of control

CCOP(=S)(S)OCC.[Cr]
inactive: [15] 98 % of control | [7] 98 % of control | [8] 102 % of control | [9] 96 % of control

O=C(Nc1ccccc1)NC(C(=O)O)(c1ccccc1)c1ccccc1
inactive: [15] 97 % of control | [7] 89 % of control | [8] 92 % of control

CC(=O)Nc1ncccc1C
inactive: dose: 5.0 mg/kg/injection, schedule: Q01DX001 (ip), vehicle: saline 94 % of control | dose: 10.0 mg/kg/injection, schedule: Q01DX001 (ip), vehicle: saline 96 % of control | dose: 20.0 mg/kg/injection, schedule: Q01DX001 (ip), vehicle: saline 101 % of control | dose: 40.0 mg/kg/injection, schedule: Q01DX001 (ip), vehicle: saline 100 % of control

CCC#CC(=O)OCCCC
inactive: dose: 100.0 mg/kg/injection, schedule: Q04DX002 (ip), vehicle: saline 93 % of control | dose: 200.0 mg/kg/injection, schedule: Q04DX002 (ip), vehicle: saline 104 % of control | dose: 400.0 mg/kg/injection, schedule: Q04DX002 (ip), vehicle: saline 96 % of control

CC[CH2][Sn]([CH2]CC)[CH2]CC.CC[CH2][Sn]([CH2]CC)[CH2]CC
inactive: dose: 12.5 mg/kg/injection, schedule: Q01DX009 (sc), vehicle: olive oil, sesame oil, peanut oil 97 % of control | dose: 25.0 mg/kg/injection, schedule: Q01DX009 (sc), vehicle: olive oil, sesame oil, peanut oil 100 % of control | dose: 25.0 mg/kg/injection, schedule: Q04DX002 (sc), vehicle: olive oil, sesame oil, peanut oil 102 % of control | dose: 50.0 mg/kg/injection, schedule: Q04DX002 (sc), vehicle: olive oil, sesame oil, peanut oil 102 % of control | dose: 100.0 mg/kg/injection, schedule: Q04DX002 (sc), vehicle: olive oil, sesame oil, peanut oil 115 % of control

CC(CO)(CO)Cc1ccccc1
inactive: [16] 97 % of control | [17] 108 % of control | [18] 120 % of control

COC1C(=O)CCC2(CO2)C1(O)C1(C)OC1CCC(C)C (stereo not drawn)
inactive: dose: 100.0 mg/kg/injection, schedule: Q01DX009 (ip), vehicle: acetone 95 % of control | dose: 200.0 mg/kg/injection, schedule: Q01DX009 (ip), vehicle: acetone 92 % of control

C=C1N2CCC(CC2)C1(O)c1ccccc1 (stereo not drawn)
inactive: dose: 3.13 mg/kg/injection, schedule: Q04DX003 (ip), vehicle: saline 92 % of control | dose: 6.25 mg/kg/injection, schedule: Q04DX003 (ip), vehicle: saline 103 % of control | [6] 103 % of control | dose: 12.5 mg/kg/injection, schedule: Q04DX003 (ip), vehicle: saline 97 % of control

Cc1ncc(CCO)c(CO)c1O
inactive: [10] 104 % of control | [11] 101 % of control | [12] 106 % of control

CCCCOC(=O)CSSCC(=O)OCCCC
inactive: [1] 106 % of control | [2] 109 % of control

C[N+]1=C2CCCCCC2=C(N)CC1
inactive: dose: 6.25 mg/kg/injection, schedule: Q01DX009 (ip), vehicle: saline 104 % of control | dose: 12.5 mg/kg/injection, schedule: Q01DX009 (ip), vehicle: saline 100 % of control | dose: 25.0 mg/kg/injection, schedule: Q01DX009 (ip), vehicle: saline 100 % of control

O=[N+]([O-])c1ccccc1C1CCCCC1
inactive: [16] 89 % of control | [17] 93 % of control | [18] 100 % of control

Nc1ccc2cn[nH]c2c1
inactive: dose: 50.0 mg/kg/injection, schedule: Q04DX002 (ip), vehicle: saline with Tween-80 100 % of control | dose: 100.0 mg/kg/injection, schedule: Q01DX009 (ip), vehicle: water 104 % of control | [16] 100 % of control | dose: 100.0 mg/kg/injection, schedule: Q04DX003 (ip), vehicle: water 96 % of control | dose: 200.0 mg/kg/injection, schedule: Q01DX009 (ip), vehicle: water 111 % of control | [17] 106 % of control | dose: 200.0 mg/kg/injection, schedule: Q04DX003 (ip), vehicle: water 94 % of control | dose: 400.0 mg/kg/injection, schedule: Q04DX003 (ip), vehicle: water 100 % of control

CCCCCCc1cc[n+](C(=O)c2ccc([N+](=O)[O-])cc2)cc1
inactive: [1] 102 % of control | [2] 104 % of control | dose: 400.0 mg/kg/injection, schedule: Q04DX003 (ip), vehicle: saline with Tween-80 94 % of control

CCCCN(C)/N=N/c1nc[nH]c1C(=O)OC
inactive: dose: 33.0 mg/kg/injection, schedule: Q01DX015 (ip), vehicle: carboxymethylcellulose (CMC) 108 % of control | dose: 45.0 mg/kg/injection, schedule: Q01DX015 (ip), vehicle: carboxymethylcellulose (CMC) 117 % of control | dose: 60.0 mg/kg/injection, schedule: Q01DX015 (ip), vehicle: carboxymethylcellulose (CMC) 95 % of control | dose: 75.0 mg/kg/injection, schedule: Q01DX015 (ip), vehicle: carboxymethylcellulose (CMC) 86 % of control | dose: 100.0 mg/kg/injection, schedule: Q01DX001 (ip), vehicle: carboxymethylcellulose (CMC) 98 % of control | dose: 200.0 mg/kg/injection, schedule: Q01DX001 (ip), vehicle: carboxymethylcellulose (CMC) 104 % of control | dose: 400.0 mg/kg/injection, schedule: Q01DX001 (ip), vehicle: carboxymethylcellulose (CMC) 124 % of control
